According to the supplement of paper PMC10733146:

Legend:
Experiment in all cases: viability relative to DMSO control (fraction); higher = less drug effect (more viable cells)
Settings in all cases: 48 h
Cladribine = compound: Nc1nc(Cl)nc2c1ncn2[C@H]1C[C@H](O)[C@@H](CO)O1 [Cladribine]
Outline: (§1)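 In 384-well plates with compounds pre-plated at five concentrations (one well per concentration), primary mononuclear tumour cells were plated at 4 × 10^4 cells per well. The cells came from blood or bone marrow by Ficoll isolation or from processed lymph node, and were used fresh or cryopreserved. Culture ran for 48 h at 37 °C and 5% CO2 in RPMI-1640 containing penicillin/streptomycin, L-glutamine and human serum. Viability was read as CellTiter-Glo luminescence, normalised to the median of 16 inner DMSO wells.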

TMP269 = compound: O=C(NCC1(c2nc(-c3ccccc3)cs2)CCOCC1)c1cccc(-c2noc(C(F)(F)F)n2)c1 [TMP269]
Outline: as §1

ONO-4059 = compound: CC#CC(=O)N1CC[C@@H](n2c(=O)n(-c3ccc(Oc4ccccc4)cc3)c3c(N)ncnc32)C1 [ONO-4059]
Outline: as §1

Pentostatin = compound: OC[C@H]1O[C@@H](n2cnc3c2N=CNC[C@H]3O)C[C@@H]1O [Pentostatin]
Outline: as §1

Vincristine = compound: CC[C@]1(O)C[C@H]2CN(CCc3c([nH]c4ccccc34)[C@@](C(=O)OC)(c3cc4c(cc3OC)N(C=O)[C@H]3[C@@](O)(C(=O)OC)[C@H](OC(C)=O)[C@]5(CC)C=CCN6CC[C@]43[C@@H]65)C2)C1 [Vincristine]
Outline: as §1

MLN-120B = compound: COc1c(Cl)cc2c([nH]c3cnccc32)c1NC(=O)c1cccnc1C [MLN-120B]
Outline: as §1

AG-221 (Enasidinib) = compound: CC(C)(O)CNc1nc(Nc2ccnc(C(F)(F)F)c2)nc(-c2cccc(C(F)(F)F)n2)n1 [AG-221 (Enasidinib)]
Outline: as §1

Quizartinib = compound: CC(C)(C)c1cc(NC(=O)Nc2ccc(-c3cn4c(n3)sc3cc(OCCN5CCOCC5)ccc34)cc2)no1 [Quizartinib]
Outline: as §1

Carfilzomib = compound: CC(C)C[C@H](NC(=O)[C@H](CCc1ccccc1)NC(=O)CN1CCOCC1)C(=O)N[C@@H](Cc1ccccc1)C(=O)N[C@@H](CC(C)C)C(=O)[C@@]1(C)CO1 [Carfilzomib]
Outline: as §1

Obatoclax mesylate = compound: COC1=CC(c2cc3ccccc3[nH]2)=N/C1=C\c1[nH]c(C)cc1C [Obatoclax mesylate]
Outline: as §1

8-Azaguanin = compound: Nc1nc2n[nH]nc2c(=O)[nH]1 [8-Azaguanin]
Outline: as §1

Tozasertib = compound: Cc1cc(Nc2cc(N3CCN(C)CC3)nc(Sc3ccc(NC(=O)C4CC4)cc3)n2)n[nH]1 [Tozasertib]
Outline: as §1

BI6727 = compound: CC[C@@H]1C(=O)N(C)c2cnc(Nc3ccc(C(=O)N[C@H]4CC[C@H](N5CCN(CC6CC6)CC5)CC4)cc3OC)nc2N1C(C)C [BI6727]
Outline: as §1

EPZ-5676 = compound: CC(C)N(C[C@H]1O[C@@H](n2cnc3c(N)ncnc32)[C@H](O)[C@@H]1O)[C@H]1C[C@@H](CCc2nc3cc(C(C)(C)C)ccc3[nH]2)C1 [EPZ-5676]
Outline: as §1

Test System primary AML patient cells (S085) has a viability (Cladribine; 0.024 µM) of 0.411, a viability (Cladribine; 0.12 µM) of 0.324 and a viability (Cladribine; 0.6 µM) of 0.185. For the same test system, the viability (Cladribine; 3 µM) was 0.127, the viability (Cladribine; 15 µM) was 0.149 and the viability (TMP269; 0.024 µM) was 0.886. The viability (TMP269; 0.12 µM) was 0.931, the viability (TMP269; 0.6 µM) was 0.999 and the viability (TMP269; 3 µM) was 0.807. The viability (TMP269; 15 µM) was 0.939, the viability (ONO-4059; 0.0016 µM) was 1.17 and the viability (ONO-4059; 0.008 µM) was 0.918. It also gave a viability (ONO-4059; 0.04 µM) of 0.956, a viability (ONO-4059; 0.2 µM) of 0.923 and a viability (ONO-4059; 1 µM) of 1.02. The viability (Pentostatin; 0.03 µM) was 1.11, the viability (Pentostatin; 0.15 µM) was 1.03 and the viability (Pentostatin; 0.75 µM) was 0.965. The viability (Pentostatin; 3.75 µM) was 0.869, the viability (Pentostatin; 18.76 µM) was 0.77 and the viability (Vincristine; 0.016 µM) was 0.558. It also gave a viability (Vincristine; 0.08 µM) of 0.909, a viability (Vincristine; 0.4 µM) of 0.515 and a viability (Vincristine; 2 µM) of 0.39. The viability (Vincristine; 10 µM) was 0.22, the viability (MLN-120B; 0.024 µM) was 0.867 and the viability (MLN-120B; 0.12 µM) was 0.936. It also gave a viability (MLN-120B; 0.6 µM) of 0.842, a viability (MLN-120B; 3 µM) of 0.839 and a viability (MLN-120B; 15 µM) of 0.627. The viability (AG-221 (Enasidinib); 0.024 µM) was 0.809, the viability (AG-221 (Enasidinib); 0.12 µM) was 0.822 and the viability (AG-221 (Enasidinib); 0.6 µM) was 1.04. For the same test system, the viability (AG-221 (Enasidinib); 3 µM) was 0.724, the viability (AG-221 (Enasidinib); 15 µM) was 0.816 and the viability (Quizartinib; 0.016 µM) was 1.08. It also gave a viability (Quizartinib; 0.08 µM) of 1.01, a viability (Quizartinib; 0.4 µM) of 1.04 and a viability (Quizartinib; 2 µM) of 1.22. It also gave a viability (Quizartinib; 10 µM) of 0.938, a viability (Carfilzomib; 0.00016 µM) of 0.776 and a viability (Carfilzomib; 0.0008 µM) of 0.359. For the same test system, the viability (Carfilzomib; 0.004 µM) was 0.0469, the viability (Carfilzomib; 0.02 µM) was 0.017 and the viability (Carfilzomib; 0.1 µM) was 0.0217. For the same test system, the viability (Obatoclax mesylate; 0.024 µM) was 1.11, the viability (Obatoclax mesylate; 0.12 µM) was 1.28 and the viability (Obatoclax mesylate; 0.6 µM) was 1.09. The viability (Obatoclax mesylate; 3 µM) was 0.655, the viability (Obatoclax mesylate; 15 µM) was 0.21 and the viability (8-Azaguanin; 0.032 µM) was 0.981. It also gave a viability (8-Azaguanin; 0.16 µM) of 1.17, a viability (8-Azaguanin; 0.8 µM) of 0.778 and a viability (8-Azaguanin; 4 µM) of 0.396. It also gave a viability (8-Azaguanin; 20 µM) of 0.163, a viability (Tozasertib; 0.024 µM) of 0.957 and a viability (Tozasertib; 0.12 µM) of 0.827. It also gave a viability (Tozasertib; 0.6 µM) of 0.845, a viability (Tozasertib; 3 µM) of 0.742 and a viability (Tozasertib; 15 µM) of 0.427. The viability (BI6727; 0.024 µM) was 1.02, the viability (BI6727; 0.12 µM) was 0.866 and the viability (BI6727; 0.6 µM) was 0.586. It also gave a viability (BI6727; 3 µM) of 0.208, a viability (BI6727; 15 µM) of 0.0796 and a viability (EPZ-5676; 0.0032 µM) of 1.27. For the same test system, the viability (EPZ-5676; 0.016 µM) was 1.21, the viability (EPZ-5676; 0.08 µM) was 0.921 and the viability (EPZ-5676; 0.4 µM) was 0.901. For the same test system, the viability (EPZ-5676; 2 µM) was 1.08.
In the case of primary CLL patient cells (S031), the viability (Cladribine; 0.024 µM) is reported as 0.442, the viability (Cladribine; 0.12 µM) is reported as 0.115 and the viability (Cladribine; 0.6 µM) is reported as 0.0501. The viability (Cladribine; 3 µM) was 0.0402, the viability (Cladribine; 15 µM) was 0.031 and the viability (TMP269; 0.024 µM) was 0.914. It also gave a viability (TMP269; 0.12 µM) of 0.904, a viability (TMP269; 0.6 µM) of 0.989 and a viability (TMP269; 3 µM) of 0.939. For the same test system, the viability (TMP269; 15 µM) was 0.992, the viability (ONO-4059; 0.0016 µM) was 0.831 and the viability (ONO-4059; 0.008 µM) was 0.829. For the same test system, the viability (ONO-4059; 0.04 µM) was 0.719, the viability (ONO-4059; 0.2 µM) was 0.749 and the viability (ONO-4059; 1 µM) was 0.72. For the same test system, the viability (Pentostatin; 0.03 µM) was 0.885, the viability (Pentostatin; 0.15 µM) was 0.779 and the viability (Pentostatin; 0.75 µM) was 0.828. For the same test system, the viability (Pentostatin; 3.75 µM) was 0.705, the viability (Pentostatin; 18.76 µM) was 0.739 and the viability (Vincristine; 0.016 µM) was 0.363. For the same test system, the viability (Vincristine; 0.08 µM) was 0.246, the viability (Vincristine; 0.4 µM) was 0.153 and the viability (Vincristine; 2 µM) was 0.131. For the same test system, the viability (Vincristine; 10 µM) was 0.0855, the viability (MLN-120B; 0.024 µM) was 0.859 and the viability (MLN-120B; 0.12 µM) was 0.889. For the same test system, the viability (MLN-120B; 0.6 µM) was 0.836, the viability (MLN-120B; 3 µM) was 0.813 and the viability (MLN-120B; 15 µM) was 0.719. It also gave a viability (AG-221 (Enasidinib); 0.024 µM) of 0.738, a viability (AG-221 (Enasidinib); 0.12 µM) of 0.754 and a viability (AG-221 (Enasidinib); 0.6 µM) of 0.847. The viability (AG-221 (Enasidinib); 3 µM) was 0.799, the viability (AG-221 (Enasidinib); 15 µM) was 0.786 and the viability (Quizartinib; 0.016 µM) was 1.03. The viability (Quizartinib; 0.08 µM) was 1.15, the viability (Quizartinib; 0.4 µM) was 1.04 and the viability (Quizartinib; 2 µM) was 1.13. The viability (Quizartinib; 10 µM) was 1.02, the viability (Carfilzomib; 0.00016 µM) was 1 and the viability (Carfilzomib; 0.0008 µM) was 0.135. The viability (Carfilzomib; 0.004 µM) was 0.0182, the viability (Carfilzomib; 0.02 µM) was 0.0155 and the viability (Carfilzomib; 0.1 µM) was 0.0219. It also gave a viability (Obatoclax mesylate; 0.024 µM) of 0.88, a viability (Obatoclax mesylate; 0.12 µM) of 0.863 and a viability (Obatoclax mesylate; 0.6 µM) of 0.738. For the same test system, the viability (Obatoclax mesylate; 3 µM) was 0.384, the viability (Obatoclax mesylate; 15 µM) was 0.0738 and the viability (8-Azaguanin; 0.032 µM) was 0.92. For the same test system, the viability (8-Azaguanin; 0.16 µM) was 0.878, the viability (8-Azaguanin; 0.8 µM) was 0.794 and the viability (8-Azaguanin; 4 µM) was 0.483. For the same test system, the viability (8-Azaguanin; 20 µM) was 0.267, the viability (Tozasertib; 0.024 µM) was 0.906 and the viability (Tozasertib; 0.12 µM) was 0.797. The viability (Tozasertib; 0.6 µM) was 0.757, the viability (Tozasertib; 3 µM) was 0.559 and the viability (Tozasertib; 15 µM) was 0.284. It also gave a viability (BI6727; 0.024 µM) of 0.922, a viability (BI6727; 0.12 µM) of 0.854 and a viability (BI6727; 0.6 µM) of 0.866. The viability (BI6727; 3 µM) was 0.524, the viability (BI6727; 15 µM) was 0.178 and the viability (EPZ-5676; 0.0032 µM) was 0.887. It also gave a viability (EPZ-5676; 0.016 µM) of 0.952, a viability (EPZ-5676; 0.08 µM) of 0.895 and a viability (EPZ-5676; 0.4 µM) of 0.881. The viability (EPZ-5676; 2 µM) was 0.925.
